According to paper PMC6695355, “Alanine Scanning Studies of the Antimicrobial Peptide Aurein 1.2” (Probiotics and Antimicrobial Proteins, 2018):
≈ marks a conversion by molar mass, not a printed value. Where a SMILES comes first, the peptide text is derived from it.

Tests used:
[1] = system: human red blood cells (RBCs); assay: Hemolysis assay; format: cell-based; conditions: red cells of human, 1 h
Procedure, shortened: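 Fresh EDTA-anticoagulated human erythrocytes were PBS-washed and used at 4% (v/v) with peptide at 1–256 μg/mL in PBS for 1 h at 37 °C. Hemoglobin release in the supernatant was read at 540 nm. PBS set 0% and 1% Triton X-100 set 100% hemolysis; run in triplicate.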

[2] = system: E. faecalis PCM 2673 biofilm formation; format: cell-based, Enterococcus faecalis; conditions: 24 h
Procedure, shortened: (§1)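 Broth microdilution per CLSI, 1–512 μg/mL; bacteria 0.5 × 10^5 CFU/mL in MHB, 37 °C 18 h; C. albicans 2 × 10^3 CFU/mL in RPMI-1640, 24 h; MIC = lowest concentration visibly inhibiting growth. MBEC: 24-h biofilms, PBS-rinsed, compound 24 h at 37 °C, resazurin read after 1 h. MBIC: compound with inoculum 24 h, then resazurin 1 h; cut-off ≤10% reduction versus controls.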

[3] = system: E. faecalis PCM 2673 biofilm; format: cell-based, Enterococcus faecalis; conditions: 24 h
Procedure, shortened: as §1

E. faecalis PCM 2673 = format: cell-based, Enterococcus faecalis; conditions: PCM 2673, 18 h
Procedure, shortened: as §1

[4] = system: P. aeruginosa ATCC 9027 biofilm formation; format: cell-based, Pseudomonas aeruginosa; conditions: ATCC 9027, 24 h
Procedure, shortened: as §1

P. aeruginosa ATCC 9027 = format: cell-based, Pseudomonas aeruginosa; conditions: ATCC 9027, 18 h
Procedure, shortened: as §1

[5] = system: P. aeruginosa ATCC 9027 biofilm; format: cell-based, Pseudomonas aeruginosa; conditions: ATCC 9027, 24 h
Procedure, shortened: as §1

[6] = system: E. coli ATCC 25922 biofilm formation; format: cell-based, Escherichia coli; conditions: ATCC 25922, 24 h
Procedure, shortened: as §1

E. coli ATCC 25922 = format: cell-based, Escherichia coli; conditions: ATCC 25922, 18 h
Procedure, shortened: as §1

[7] = system: E. coli ATCC 25922 biofilm; format: cell-based, Escherichia coli; conditions: ATCC 25922, 24 h
Procedure, shortened: as §1

[8] = system: S. aureus ATCC 25923 biofilm formation; format: cell-based, Staphylococcus aureus; conditions: ATCC 25923, 24 h
Procedure, shortened: as §1

[9] = system: S. aureus ATCC 25923 biofilm; format: cell-based, Staphylococcus aureus; conditions: ATCC 25923, 24 h
Procedure, shortened: as §1

S. aureus ATCC 25923 = format: cell-based, Staphylococcus aureus; conditions: ATCC 25923, 18 h
Procedure, shortened: as §1

in vitro = in vitro ADME; conditions: bovine, serum
Procedure, shortened: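 Peptides incubated in 25% (v/v) fetal bovine serum in PBS at 37 °C, quenched with ice-cold acetonitrile at t0 and 6 h. Intact peptide quantified by RP-HPLC-MS in selected ion recording mode; % remaining = peak area at 6 h / peak area at t0.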

[10] = format: physicochemical; conditions: pH 7.4
C. albicans ATCC 10231 = format: cell-based, Candida albicans; conditions: ATCC 10231, 24 h
Procedure, shortened: as §1

[11] = system: C. albicans ATCC 10231 biofilm formation; format: cell-based, Candida albicans; conditions: ATCC 10231, 24 h
Procedure, shortened: as §1

[12] = system: C. albicans ATCC 10231 biofilm; format: cell-based, Candida albicans; conditions: ATCC 10231, 24 h
Procedure, shortened: as §1

SMILES | Percentage of hemolysis at 1 μg/mL [1] [%] | Percentage of hemolysis at 2 μg/mL [1] [%] | Percentage of hemolysis at 4 μg/mL [1] [%] | Percentage of hemolysis at 8 μg/mL [1] [%] | Percentage of hemolysis at 16 μg/mL [1] [%] | Percentage of hemolysis at 32 μg/mL [1] [%] | Percentage of hemolysis at 64 μg/mL [1] [%] | Percentage of hemolysis at 128 μg/mL [1] [%] | Percentage of hemolysis at 256 μg/mL [1] [%] | MBIC, E. faecalis PCM 2673 [2] [µg/mL] | MBEC, E. faecalis PCM 2673 [3] [µg/mL] | MIC, E. faecalis PCM 2673 (E. faecalis PCM 2673) [µg/mL] | MBIC, P. aeruginosa ATCC 9027 [4] [µg/mL] | MBEC, P. aeruginosa ATCC 9027 [5] [µg/mL] | MBIC, E. coli ATCC 25922 [6] [µg/mL] | MIC, E. coli ATCC 25922 (E. coli ATCC 25922) [µg/mL] | MBEC, E. coli ATCC 25922 [7] [µg/mL] | MBIC, S. aureus ATCC 25923 [8] [µg/mL] | MBEC, S. aureus ATCC 25923 [9] [µg/mL] | MIC, S. aureus ATCC 25923 (S. aureus ATCC 25923) [µg/mL] | also measured
CC[C@H](C)[C@H](NC(=O)[C@H](CCCCN)NC(=O)[C@H](C)NC(=O)[C@@H](NC(=O)[C@@H](NC(=O)[C@H](CC(=O)O)NC(=O)[C@H](Cc1ccccc1)NC(=O)[C@H](CC(C)C)NC(=O)CN)[C@@H](C)CC)[C@@H](C)CC)C(=O)N[C@@H](C)C(=O)N[C@@H](CCC(=O)O)C(=O)N[C@@H](CO)C(=O)N[C@@H](Cc1ccccc1)C(N)=O [Peptide K7A] (H-GLFDIIAKIAESF-NH2) | 0.2 | 0.1 | 0.0 | 0.0 | 0.1 | 3.4 | 0.7 | 3.0 | 4.6 | > 512 | > 512 | 512 (≈ 360 µM) | > 512 | > 512 | 64 | > 512 | > 512 | > 512 | > 512 | > 512 | MIC, P. aeruginosa ATCC 9027 (P. aeruginosa ATCC 9027): > 512 µg/mL; remaining at 6 h, 0.125 mg/mL (in vitro): 59%; Solubility in surfactant-free phosphate buffer [10]: poor solubility; MIC, C. albicans ATCC 10231 (C. albicans ATCC 10231): > 512 µg/mL; MBIC, C. albicans ATCC 10231 [11]: 4 µg/mL; MBEC, C. albicans ATCC 10231 [12]: > 512 µg/mL
CC[C@H](C)[C@H](NC(=O)[C@H](CCCCN)NC(=O)[C@H](CCCCN)NC(=O)[C@@H](NC(=O)[C@@H](NC(=O)[C@H](CC(=O)O)NC(=O)[C@H](Cc1ccccc1)NC(=O)[C@H](CC(C)C)NC(=O)CN)[C@@H](C)CC)[C@@H](C)CC)C(=O)N[C@@H](C)C(=O)N[C@@H](CCC(=O)O)C(=O)N[C@@H](C)C(=O)N[C@@H](Cc1ccccc1)C(N)=O [Peptide S12A] (H-GLFDIIKKIAEAF-NH2) | 0.0 | 0.0 | 0.0 | 0.0 | 1.2 | 6.5 | 12.0 | 15.4 | 23.5 | 128 | 128 | 64 (≈ 43.7 µM) | >512 | > 512 | 32 | 64 (≈ 43.7 µM) | > 512 | 32 | > 512 | 32 (≈ 21.9 µM) | remaining at 6 h, 0.125 mg/mL (in vitro): 77%; Solubility in surfactant-free phosphate buffer [10]: poor solubility; MIC, C. albicans ATCC 10231 (C. albicans ATCC 10231): 32 µg/mL (≈ 21.9 µM); MBIC, C. albicans ATCC 10231 [11]: 2 µg/mL; MBEC, C. albicans ATCC 10231 [12]: 256 µg/mL
